How the values were obtained:
[1] = test system: MM1 S (B lymphoblast cell line); assay: 48 hr CTG viability assay, MM1S; type: cell-based; conditions: Homo sapiens, 48 hr CTG, read-out: MM1S IC50
How it was run: (§1)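 Growth inhibition by compound over 48 h; IC50 (nM) derived from duplicate CellTiter-Glo luminescence readings across 0.0015–10 uM.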

[2] = target: T1, β5 subunit of the human constitutive proteasome (CPS) (Homo sapiens, UniProt P28074); assay: β5 inhibition assay, human constitutive proteasome (Suc-LLVY-AMC); type: biochemical; conditions: IC50 class, Suc-LLVY-AMC substrate
T1 construct: purchased Boston Biochem E-360
Description: The enzymatic activity of the β5 subunit of the human constitutive proteasome (CPS) is analyzed. In another assay, which differs from the assay of the human constitutive proteasome only in using the human immunoproteasome (IPS) the enzymatic activity of the β5 subunit of the human immunoproteasome (IPS) is analyzed. […] Inhibition is indicated as IC50 [nM] (“-”=not measured).

[3] = test system: A549 (human lung carcinoma cell line); assay: Glo assay of A549 cells (Table 3; ProteasomeGlo plating scheme); type: cell-based; conditions: Homo sapiens; A549 cells; read-out: PGLo A549
How it was run: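 After acoustic compound transfer, plates incubate 105 min (37° C., 5% CO2). Proteasome-Glo reagent containing Suc-LLVY-Glo substrate is added, plates are shaken, then luminescence is measured after 10-15 min to derive IC50 [nM]. Staurosporine and DMSO serve as controls.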

[4] = target: T2, β5 subunit of the human immunoproteasome (IPS) (Homo sapiens, UniProt P28062); assay: β5 inhibition assay, human immunoproteasome (Suc-LLVY-AMC); type: biochemical; conditions: IC50 class, Suc-LLVY-AMC substrate
T2 construct: purchased Boston Biochem E-370
How it was run: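 β5 activity is read as liberated AMC fluorescence (355/460 nm) after 4 h dark reaction at RT with 22.6 μM Suc-LLVY-AMC, stopped by 1 μM bortezomib. Beforehand, 1 nM human IPS and compound sat 10 min at RT in HEPES pH 7.5 buffer containing NaCl, 0.02% SDS and DTT.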

[5] = test system: Hs 746T (human gastric carcinoma cell line); assay: 48 hr CTG viability assay, Hs 746T; type: cell-based; conditions: Hs746T, 48 hr CTG, read-out: Hs 746T IC50
How it was run: as §1

[6] = test system: RPMI 8226 (B lymphocyte cell line, multiple myeloma); assay: 48 hr CTG viability assay, RPMI 8226; type: cell-based; conditions: Homo sapiens, RPMI-8226; 48 hr CTG; read-out: RPMI-8226 IC50
How it was run: as §1

Measured: IC50

COc1ccc(CCOCCC(=O)N[C@H]2CC(=O)N3CCCC(CCOc4ccc(C)c(c4)CNC(=O)[C@H](CCc4ccccc4)NC2=O)C3)cc1 (stereo partly drawn) [Compound 610, 3-(4-methoxyphenethoxy)-N-((9S,12S)-5^4-methyl-8,11,14-trioxo-9-phenethyl-4-oxa-7,10-diaza-1(3,1)-piperidina-5(1,3)-benzenacyclotetradecaphane-12-yl)propanamide]
< 100 nM: all assays above

Cc1ccc2cc1CNC(=O)[C@H](CCc1ccccc1)NC(=O)[C@@H](NC(=O)Cc1ccc3ncccc3c1)CC(=O)N1CCCC(CCO2)C1 (stereo partly drawn) [Compound 586, N-((9S,12S)-5^4-methyl-8,11,14-trioxo-9-phenethyl-4-oxa-7,10-diaza-1(3,1)-piperidina-5(1,3)-benzenacyclotetradecaphane-12-yl)-2-(quinolin-6-yl)acetamide]
< 100 nM: all assays above

Cc1ccc2cc1CNC(=O)[C@H](CCc1ccccc1)NC(=O)[C@@H](NC(=O)CCNC(=O)C1CC3CCC1C3)CC(=O)N1CCCC(CCO2)C1 (stereo partly drawn) [Compound 617, N-(3-(((9S,12S)-5^4-methyl-8,11,14-trioxo-9-phenethyl-4-oxa-7,10-diaza-1(3,1)-piperidina-5(1,3)-benzenacyclotetradecaphane-12-yl)amino)-3-oxopropyl)bicyclo[2.2.1]heptane-2-carboxamide]
< 100 nM: all assays above

Cc1ccc2cc1CNC(=O)[C@H](CCc1ccccc1)NC(=O)[C@@H](NC(=O)C13CC(O)(C1)C3)CC(=O)N1CCCC(CCO2)C1 (stereo partly drawn) [Compound 655, 3-hydroxy-N-((9S,12S)-5^4-methyl-8,11,14-trioxo-9-phenethyl-4-oxa-7,10-diaza-1(3,1)-piperidina-5(1,3)-benzenacyclotetradecaphane-12-yl)bicyclo[1.1.1]pentane-1-carboxamide]
< 100 nM: all assays above

Cc1ccc2cc1CNC(=O)[C@H](CCc1ccccc1)NC(=O)[C@@H](NCC(C)(C)CO)CC(=O)N1CCCC(CCO2)C1 (stereo partly drawn) [Compound 690, (9S,12S)-12-((3-hydroxy-2,2-dimethylpropyl)amino)-5^4-methyl-9-phenethyl-4-oxa-7,10-diaza-1(3,1)-piperidina-5(1,3)-benzenacyclotetradecaphane-8,11,14-trione]
< 100 nM: all assays above

CC(C)(CO)C(=O)N[C@H]1CC(=O)N2CCCC(CCOc3ccc(F)c(c3)CNC(=O)[C@H](CCc3ccccc3)NC1=O)C2 (stereo partly drawn) [Compound 684, N-((9S,12S)-5^4-fluoro-8,11,14-trioxo-9-phenethyl-4-oxa-7,10-diaza-1(3,1)-piperidina-5(1,3)-benzenacyclotetradecaphane-12-yl)-3-hydroxy-2,2-dimethylpropanamide]
< 100 nM: all assays above

Cc1ccc2cc1CNC(=O)[C@H](CCc1ccccc1)NC(=O)[C@@H](NC(=O)CN1CCC1)CC(=O)N1CCCC(CCO2)C1 (stereo partly drawn) [Compound 663, 2-(azetidin-1-yl)-N-((9S,12S)-5^4-methyl-8,11,14-trioxo-9-phenethyl-4-oxa-7,10-diaza-1(3,1)-piperidina-5(1,3)-benzenacyclotetradecaphane-12-yl)acetamide]
< 100 nM: all assays above

Cc1ccc2cc1CNC(=O)[C@H](CCc1ccccc1)NC(=O)[C@@H](NC(=O)CCNCCC1CCCC1)CC(=O)N1CCCC(CCO2)C1 (stereo partly drawn) [Compound 700, 3-((2-cyclopentylethyl)amino)-N-((9S,12S)-5^4-methyl-8,11,14-trioxo-9-phenethyl-4-oxa-7,10-diaza-1(3,1)-piperidina-5(1,3)-benzenacyclotetradecaphane-12-yl)propanamide]
< 100 nM: all assays above

Cc1ccc2cc1CNC(=O)[C@H](CCc1ccccc1)NC(=O)[C@@H](NC(=O)CCN1CCC3(CCC3)C1)CC(=O)N1CCCC(CCO2)C1 (stereo partly drawn) [Compound 639, N-((9S,12S)-5^4-methyl-8,11,14-trioxo-9-phenethyl-4-oxa-7,10-diaza-1(3,1)-piperidina-5(1,3)-benzenacyclotetradecaphane-12-yl)-3-(6-azaspiro[3.4]octan-6-yl)propanamide]
< 100 nM: all assays above

Cc1ccc2cc1CNC(=O)[C@H](CCc1ccccc1)NC(=O)[C@@H](NC(=O)C1CCCCC1)CC(=O)N1CCCC(CCO2)C1 (stereo partly drawn) [Compound 643, N-((9S,12S)-5^4-methyl-8,11,14-trioxo-9-phenethyl-4-oxa-7,10-diaza-1(3,1)-piperidina-5(1,3)-benzenacyclotetradecaphane-12-yl)cyclohexanecarboxamide]
< 100 nM: all assays above

COc1cccc(CCCOCCC(=O)N[C@H]2CC(=O)N3CCCC(CCOc4ccc(C)c(c4)CNC(=O)[C@H](CCc4ccccc4)NC2=O)C3)c1 (stereo partly drawn) [Compound 607, 3-(3-(3-methoxyphenyl)propoxy)-N-((9S,12S)-5^4-methyl-8,11,14-trioxo-9-phenethyl-4-oxa-7,10-diaza-1(3,1)-piperidina-5(1,3)-benzenacyclotetradecaphane-12-yl)propanamide]
< 100 nM: all assays above

Cc1ccc2cc1CNC(=O)[C@H](CCc1ccccc1)NC(=O)[C@@H](NC(=O)CCNC1CCC1)CC(=O)N1CCCC(CCO2)C1 (stereo partly drawn) [Compound 680, 3-(cyclobutylamino)-N-((9S,12S)-5^4-methyl-8,11,14-trioxo-9-phenethyl-4-oxa-7,10-diaza-1(3,1)-piperidina-5(1,3)-benzenacyclotetradecaphane-12-yl)propanamide]
< 100 nM: all assays above

Cc1ccc2cc1CNC(=O)[C@H](CCc1ccccc1)NC(=O)[C@@H](NC(=O)C13CC(N)(C1)C3)CC(=O)N1CCCC(CCO2)C1 (stereo partly drawn) [Compound 662, 3-amino-N-((9S,12S)-5^4-methyl-8,11,14-trioxo-9-phenethyl-4-oxa-7,10-diaza-1(3,1)-piperidina-5(1,3)-benzenacyclotetradecaphane-12-yl)bicyclo[1.1.1]pentane-1-carboxamide]
< 100 nM: all assays above

Cc1ccc2cc1CNC(=O)[C@H](CCc1ccccc1)NC(=O)[C@@H](NC(=O)N1CCC(C)(O)CC1)CC(=O)N1CCCC(CCO2)C1 (stereo partly drawn) [Compound 676, 4-hydroxy-4-methyl-N-((9S,12S)-5^4-methyl-8,11,14-trioxo-9-phenethyl-4-oxa-7,10-diaza-1(3,1)-piperidina-5(1,3)-benzenacyclotetradecaphane-12-yl)piperidine-1-carboxamide]
< 100 nM: all assays above
